# From article PMC6892409, “Phenotypic proteomic profiling identifies a landscape of targets for circadian clock–modulating compounds” (Life Science Alliance, 2019)
# Where two headings read alike, the source gives them in different places.
# What was measured:
# Per2-dLuc U2OS cells = assay: Circadian luminescence period assay, Per2-dLuc U2OS cells; type: cell-based, human; details: for Effect of kinase inhibitor on circadian period length: threefold serial dilution starting at 100 μM; for Circadian period length: 8 μM, mean ± SEM, control 24.2 ± […]
# Protocol: Per2-dLuc U2OS osteosarcoma and Bmal1-dLuc U2OS osteosarcoma reporter cell lines were gifts from Dr Andrew Liu, University of Memphis, USA ([Liu et al, 2008]). […] The cells were cultured at 37°C, 5% CO2 in a standard humidified incubator.
# Synechococcus elongatus = assay: Luminescence rhythm period assay in cyanobacteria; details: 3, 8, 16 and 32 μM
# Protocol: The D730nm was maintained between 0.27 and 0.45 by dilution with fresh medium.
# Circadian period–altering compounds (dissolved in DMSO, final 0.5% DMSO) were then added in the air medium to reach the different desired concentrations. […] Images were generated from integrated photon counts over 25 min every 30 min using Metamorph software (Molecular Devices). […] Exported images were composed into image stacks and were quantified in a time series using a custom script in NIH ImageJ software, applying the “Multi Measure” plugin.
# CK1d = biological target: T1, CK1d (Homo sapiens, UniProt P48730); assay: Radiometric HotSpot kinase assay; type: biochemical; details: n = 3, remaining activity vs DMSO, read-out: Enzyme activity (%) CK1d
# T1 construct: purchased Reaction Biology
# Protocol: (§1) In brief, specific kinase/substrate pairs were mixed in a buffer containing 20 mM Hepes (pH 7.5), 10 mM MgCl2, 1 mM EGTA, 0.02% Brij35, 0.02 mg/ml BSA, 0.1 mM Na3VO4, 2 mM DTT, and 1% DMSO. […] After a 20-min incubation, ATP (cat. no. A7699; Sigma-Aldrich) and [γ-^33P] ATP (cat. no. NEG602H001MC; PerkinElmer) were added at a final total concentration of […].
# CAMK1d = biological target: T2, CAMK1d (Homo sapiens, UniProt Q8IU85); assay: Radiometric HotSpot kinase assay; type: biochemical; details: read-out: Enzyme activity (%) CAMK1d
# T2 construct: purchased Reaction Biology
# Protocol: as §1
# CDK2 = biological target: T3, CDK2 (Homo sapiens, UniProt P24941); assay: Radiometric HotSpot kinase assay; type: biochemical; details: n = 3, remaining activity vs DMSO, read-out: Enzyme activity (%) CDK2
# T3 construct: purchased Reaction Biology
# Protocol: as §1
# CK2a = biological target: T4, CK2a (Homo sapiens, UniProt P68400); assay: Radiometric HotSpot kinase assay; type: biochemical; details: read-out: Enzyme activity (%) CK2a
# T4 construct: purchased Reaction Biology
# Protocol: as §1
# CAMK2d = biological target: T5, CAMK2d (Homo sapiens, UniProt Q13557); assay: Radiometric HotSpot kinase assay; type: biochemical; details: read-out: Enzyme activity (%) CAMK2d
# T5 construct: purchased Reaction Biology
# Protocol: as §1
# ERK1/MAPK3 = biological target: T6, ERK1/MAPK3 (Homo sapiens, UniProt P27361); assay: Radiometric HotSpot kinase assay; type: biochemical; details: read-out: Enzyme activity (%) ERK1/MAPK3
# T6 construct: purchased Reaction Biology
# Protocol: as §1
# ERK2/MAPK1 = biological target: T7, ERK2/MAPK1 (Homo sapiens, UniProt P28482); assay: Radiometric HotSpot kinase assay; type: biochemical; details: read-out: Enzyme activity (%) ERK2/MAPK1
# T7 construct: purchased Reaction Biology
# Protocol: as §1
# TNIK = biological target: T8, TNIK (Homo sapiens, UniProt Q9UKE5); assay: Radiometric HotSpot kinase assay; type: biochemical; details: for remaining activity at 100 µM: read-out: Enzyme activity (%) TNIK
# T8 construct: purchased Reaction Biology
# Protocol: as §1
# CDK7 = biological target: T9, CDK7 (Homo sapiens, UniProt P50613); assay: Radiometric HotSpot kinase assay; type: biochemical; details: read-out: Enzyme activity (%) CDK7
# T9 construct: purchased Reaction Biology
# Protocol: as §1
# MST4/STK26 = biological target: T10, MST4/STK26 (Homo sapiens, UniProt Q9P289); assay: Radiometric HotSpot kinase assay; type: biochemical; details: read-out: Enzyme activity (%) MST4/STK26
# T10 construct: purchased Reaction Biology
# Protocol: as §1
# U2OS cells = assay: TMT quantitative proteomics of compound-treated U2OS cells; type: cell-based, human; details: 10 μM, 48 h, vs DMSO
# [1] = 100 μM, n = 3, remaining activity vs DMSO
# T8 sequence (Q9UKE5 whole entry): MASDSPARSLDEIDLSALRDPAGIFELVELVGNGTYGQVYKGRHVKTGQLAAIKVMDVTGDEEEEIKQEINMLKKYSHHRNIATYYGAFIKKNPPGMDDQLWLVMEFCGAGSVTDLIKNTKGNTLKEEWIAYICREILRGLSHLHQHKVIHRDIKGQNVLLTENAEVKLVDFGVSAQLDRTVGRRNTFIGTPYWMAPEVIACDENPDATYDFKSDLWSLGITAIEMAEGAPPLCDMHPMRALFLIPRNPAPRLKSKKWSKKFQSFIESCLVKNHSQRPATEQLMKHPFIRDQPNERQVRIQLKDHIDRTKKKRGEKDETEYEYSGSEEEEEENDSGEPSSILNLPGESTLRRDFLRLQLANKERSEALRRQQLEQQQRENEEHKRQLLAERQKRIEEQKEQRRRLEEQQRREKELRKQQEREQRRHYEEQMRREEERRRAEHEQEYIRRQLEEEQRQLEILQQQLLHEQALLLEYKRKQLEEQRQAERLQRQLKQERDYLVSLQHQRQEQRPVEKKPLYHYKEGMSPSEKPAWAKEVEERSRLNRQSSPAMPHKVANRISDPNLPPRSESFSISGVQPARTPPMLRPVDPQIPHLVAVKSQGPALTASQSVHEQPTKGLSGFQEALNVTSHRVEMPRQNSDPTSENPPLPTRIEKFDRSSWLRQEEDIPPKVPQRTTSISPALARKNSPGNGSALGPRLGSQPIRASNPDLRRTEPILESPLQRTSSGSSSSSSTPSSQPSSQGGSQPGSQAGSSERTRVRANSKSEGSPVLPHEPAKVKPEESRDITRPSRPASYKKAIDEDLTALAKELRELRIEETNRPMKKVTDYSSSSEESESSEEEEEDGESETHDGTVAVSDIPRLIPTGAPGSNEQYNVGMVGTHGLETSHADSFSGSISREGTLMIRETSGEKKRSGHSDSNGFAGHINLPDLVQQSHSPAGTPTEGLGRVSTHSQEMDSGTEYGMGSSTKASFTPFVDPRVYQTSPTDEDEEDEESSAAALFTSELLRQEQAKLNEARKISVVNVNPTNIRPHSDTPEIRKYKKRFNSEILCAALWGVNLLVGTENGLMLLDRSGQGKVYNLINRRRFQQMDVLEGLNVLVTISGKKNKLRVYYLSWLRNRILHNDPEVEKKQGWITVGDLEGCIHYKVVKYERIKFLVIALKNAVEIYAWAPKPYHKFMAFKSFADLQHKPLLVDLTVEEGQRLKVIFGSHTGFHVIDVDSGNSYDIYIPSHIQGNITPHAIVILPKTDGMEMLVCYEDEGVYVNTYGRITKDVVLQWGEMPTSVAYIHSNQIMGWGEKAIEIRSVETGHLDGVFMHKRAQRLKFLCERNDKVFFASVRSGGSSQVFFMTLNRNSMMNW
# T10 sequence (Q9P289 whole entry): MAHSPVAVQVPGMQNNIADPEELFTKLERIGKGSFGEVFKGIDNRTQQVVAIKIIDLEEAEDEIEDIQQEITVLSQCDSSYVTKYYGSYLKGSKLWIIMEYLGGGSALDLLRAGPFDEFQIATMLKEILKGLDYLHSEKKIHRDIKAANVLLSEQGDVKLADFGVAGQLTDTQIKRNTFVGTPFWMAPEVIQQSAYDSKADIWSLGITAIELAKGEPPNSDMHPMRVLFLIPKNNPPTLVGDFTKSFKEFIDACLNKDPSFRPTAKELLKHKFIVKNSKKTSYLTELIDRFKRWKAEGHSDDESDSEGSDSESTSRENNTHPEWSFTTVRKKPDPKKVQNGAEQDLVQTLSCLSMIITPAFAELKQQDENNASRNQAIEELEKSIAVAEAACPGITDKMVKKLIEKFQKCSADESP
# T6 sequence (P27361 whole entry): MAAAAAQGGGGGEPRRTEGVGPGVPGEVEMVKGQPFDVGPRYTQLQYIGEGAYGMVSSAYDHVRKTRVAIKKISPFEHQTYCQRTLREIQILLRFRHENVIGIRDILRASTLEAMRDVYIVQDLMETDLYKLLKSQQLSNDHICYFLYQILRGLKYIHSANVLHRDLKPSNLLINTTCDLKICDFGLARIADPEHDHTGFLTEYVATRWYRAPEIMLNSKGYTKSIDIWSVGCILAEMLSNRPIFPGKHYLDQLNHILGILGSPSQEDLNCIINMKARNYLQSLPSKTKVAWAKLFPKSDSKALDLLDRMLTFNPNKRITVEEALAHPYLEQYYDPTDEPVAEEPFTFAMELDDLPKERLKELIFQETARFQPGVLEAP
# T5 sequence (Q13557 whole entry): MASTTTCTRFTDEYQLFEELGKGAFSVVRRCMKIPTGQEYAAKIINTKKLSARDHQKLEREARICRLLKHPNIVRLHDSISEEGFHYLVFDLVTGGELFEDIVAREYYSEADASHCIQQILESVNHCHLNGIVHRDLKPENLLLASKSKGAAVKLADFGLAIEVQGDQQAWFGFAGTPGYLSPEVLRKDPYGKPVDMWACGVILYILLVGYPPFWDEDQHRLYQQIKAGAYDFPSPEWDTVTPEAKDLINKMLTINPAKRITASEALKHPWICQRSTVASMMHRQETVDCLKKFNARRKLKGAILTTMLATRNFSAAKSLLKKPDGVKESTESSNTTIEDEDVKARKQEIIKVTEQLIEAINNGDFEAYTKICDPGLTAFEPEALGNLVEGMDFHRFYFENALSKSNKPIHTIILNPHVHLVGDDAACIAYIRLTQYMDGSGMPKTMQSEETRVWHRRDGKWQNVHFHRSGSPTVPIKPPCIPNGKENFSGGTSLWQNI
# T7 sequence (P28482 whole entry): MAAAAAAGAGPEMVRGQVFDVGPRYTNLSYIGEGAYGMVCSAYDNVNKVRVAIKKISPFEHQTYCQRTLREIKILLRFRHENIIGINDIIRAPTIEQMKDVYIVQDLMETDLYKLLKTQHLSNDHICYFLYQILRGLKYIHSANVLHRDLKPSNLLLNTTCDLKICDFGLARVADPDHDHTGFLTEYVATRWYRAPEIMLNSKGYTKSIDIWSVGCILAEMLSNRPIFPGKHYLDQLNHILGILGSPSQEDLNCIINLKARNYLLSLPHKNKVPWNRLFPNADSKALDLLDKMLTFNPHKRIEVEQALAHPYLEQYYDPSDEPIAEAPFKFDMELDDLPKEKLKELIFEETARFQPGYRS
# T4 sequence (P68400 whole entry): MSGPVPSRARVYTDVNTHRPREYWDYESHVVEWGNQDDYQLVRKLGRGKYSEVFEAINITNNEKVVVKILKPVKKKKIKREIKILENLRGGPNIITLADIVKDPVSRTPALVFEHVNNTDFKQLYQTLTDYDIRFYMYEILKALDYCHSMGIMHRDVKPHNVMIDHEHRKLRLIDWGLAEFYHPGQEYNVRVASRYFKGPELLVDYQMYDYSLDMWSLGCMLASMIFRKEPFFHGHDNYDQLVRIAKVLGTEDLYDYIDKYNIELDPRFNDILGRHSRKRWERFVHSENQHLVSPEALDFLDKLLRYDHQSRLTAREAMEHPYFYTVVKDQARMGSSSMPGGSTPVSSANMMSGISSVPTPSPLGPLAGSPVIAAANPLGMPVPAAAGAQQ
# T9 sequence (P50613 whole entry): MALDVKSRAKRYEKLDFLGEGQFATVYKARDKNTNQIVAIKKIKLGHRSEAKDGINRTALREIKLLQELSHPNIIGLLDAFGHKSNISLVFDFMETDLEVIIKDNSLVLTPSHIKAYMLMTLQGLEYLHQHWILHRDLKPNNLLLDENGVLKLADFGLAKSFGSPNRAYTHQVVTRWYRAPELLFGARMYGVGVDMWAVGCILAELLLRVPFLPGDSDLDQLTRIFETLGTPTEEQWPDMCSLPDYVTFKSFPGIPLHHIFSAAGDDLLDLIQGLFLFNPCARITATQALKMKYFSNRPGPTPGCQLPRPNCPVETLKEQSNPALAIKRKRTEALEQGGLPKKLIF
# T9 sequence (P51946 whole entry partner): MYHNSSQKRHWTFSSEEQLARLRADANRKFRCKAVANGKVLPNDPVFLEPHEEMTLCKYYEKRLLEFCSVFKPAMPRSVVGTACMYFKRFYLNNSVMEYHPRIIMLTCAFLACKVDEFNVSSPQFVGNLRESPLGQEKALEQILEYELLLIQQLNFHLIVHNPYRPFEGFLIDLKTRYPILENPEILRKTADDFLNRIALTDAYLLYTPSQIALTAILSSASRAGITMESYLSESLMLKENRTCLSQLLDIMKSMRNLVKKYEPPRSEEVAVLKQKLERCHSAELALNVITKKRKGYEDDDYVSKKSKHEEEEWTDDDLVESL
# T9 sequence (P51948 whole entry partner): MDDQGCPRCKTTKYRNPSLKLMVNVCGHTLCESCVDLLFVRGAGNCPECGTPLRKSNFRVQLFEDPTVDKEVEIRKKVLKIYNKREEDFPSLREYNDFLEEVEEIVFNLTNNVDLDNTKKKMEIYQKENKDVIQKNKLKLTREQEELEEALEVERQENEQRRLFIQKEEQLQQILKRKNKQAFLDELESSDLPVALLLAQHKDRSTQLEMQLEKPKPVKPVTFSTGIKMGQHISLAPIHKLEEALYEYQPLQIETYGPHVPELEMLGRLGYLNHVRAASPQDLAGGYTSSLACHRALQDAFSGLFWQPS
# T2 sequence (Q8IU85 whole entry): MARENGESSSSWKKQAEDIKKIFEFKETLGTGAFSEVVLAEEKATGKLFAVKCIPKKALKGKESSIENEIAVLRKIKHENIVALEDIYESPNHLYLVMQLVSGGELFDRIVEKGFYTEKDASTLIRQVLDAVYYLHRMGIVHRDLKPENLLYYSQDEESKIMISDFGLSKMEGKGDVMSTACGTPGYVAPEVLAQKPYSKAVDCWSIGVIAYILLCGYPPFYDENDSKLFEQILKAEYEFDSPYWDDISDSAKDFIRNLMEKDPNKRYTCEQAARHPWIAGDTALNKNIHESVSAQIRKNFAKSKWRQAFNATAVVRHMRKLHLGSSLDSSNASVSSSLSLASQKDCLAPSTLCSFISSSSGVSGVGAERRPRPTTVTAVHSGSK
smiles,measurement,setting,value
Cc1cc2sc(NC(=O)Cc3ccccc3)nc2cc1Cl [LH846],Effect of kinase inhibitor on circadian period length,Per2-dLuc U2OS cells,substantial dose-dependent increase in the period length
"CC(C)[C@H](CO)Nc1nc(Nc2cccc(Cl)c2)c2ncn(C(C)C)c2n1 [Purvalanol A, purvalanol A]",Effect on period length in cyanobacteria,Synechococcus elongatus,do not affect period length
same,Circadian period length,Per2-dLuc U2OS cells,25.2 ± 0.04 h
same,remaining activity at 100 µM,CK1d,21.7%
same,remaining activity at 100 µM,CAMK1d; [1],49.2%
same,remaining activity at 100 µM,CDK2,0.7%
same,remaining activity at 100 µM,CK2a; [1],76.9%
same,remaining activity at 100 µM,CAMK2d; [1],53.2%
same,remaining activity at 100 µM,ERK1/MAPK3; [1],83.6%
same,remaining activity at 100 µM,ERK2/MAPK1; [1],66.5%
same,remaining activity at 100 µM,TNIK; [1],2.3%
same,IC50,"TNIK; 10-dose, threefold serial dilution starting at 100 μM",< 500 nM
same,remaining activity at 100 µM,CDK7,3.8%
same,remaining activity at 100 µM,MST4/STK26; [1],32.7%
same,Average Fold-change Acsf2 Q96CM8,U2OS cells,1.16
same,Average Fold-change Alcam Q13740,U2OS cells,1.20
same,Average Fold-change Arhgap29 Q52LW3,U2OS cells,1.19
same,Average Fold-change Cav1 Q03135,U2OS cells,1.17
same,Average Fold-change Cavin1 Q6NZI2,U2OS cells,1.22
same,Average Fold-change Cavin2 O95810,U2OS cells,1.29
same,Average Fold-change Cd47 Q08722,U2OS cells,1.17
same,Average Fold-change Cdk6 Q00534,U2OS cells,0.86
same,Average Fold-change Cdk7 P50613,U2OS cells,0.74
same,Average Fold-change Cdkn1a P38936,U2OS cells,1.52
same,Average Fold-change Cdkn1b P46527,U2OS cells,1.37
same,Average Fold-change Cers5 Q8N5B7,U2OS cells,1.14
same,Average Fold-change Cks1b P61024,U2OS cells,0.85
same,Average Fold-change Cks2 P33552,U2OS cells,0.83
same,Average Fold-change Col1a1 P02452,U2OS cells,0.80
same,Average Fold-change Ctsb P07858,U2OS cells,1.29
same,Average Fold-change Dpysl4 O14531,U2OS cells,1.15
same,Average Fold-change Fas P25445,U2OS cells,1.18
same,Average Fold-change Gls O94925,U2OS cells,0.80
same,Average Fold-change Gys1 P13807,U2OS cells,1.22
same,Average Fold-change H1f0 P07305,U2OS cells,1.20
same,Average Fold-change Hist1h4a P62805,U2OS cells,1.50
same,Average Fold-change Hist2h3a Q71DI3,U2OS cells,1.29
same,Average Fold-change Hmga1 P17096,U2OS cells,1.16
same,Average Fold-change Hmgcs1 Q01581,U2OS cells,0.77
same,Average Fold-change Hmgn2 P05204,U2OS cells,1.15
same,Average Fold-change Irf2bpl Q9H1B7,U2OS cells,1.15
same,Average Fold-change Itga2 P17301,U2OS cells,1.20
same,Average Fold-change Itga3 P26006,U2OS cells,1.17
same,Average Fold-change Naga P17050,U2OS cells,1.19
same,Average Fold-change Nbn O60934,U2OS cells,0.83
same,Average Fold-change Npc2 P61916,U2OS cells,1.33
same,Average Fold-change Pak1 Q13153,U2OS cells,1.19
same,Average Fold-change Ppp1cc P36873,U2OS cells,0.85
same,Average Fold-change Psap P07602,U2OS cells,1.20
same,Average Fold-change Rpl14 P50914,U2OS cells,0.75
same,Average Fold-change S100a2 P29034,U2OS cells,1.30
same,Average Fold-change Selenoh Q8IZQ5,U2OS cells,1.14
same,Average Fold-change Slc5a3 P53794,U2OS cells,1.16
same,Average Fold-change Slc20a1 Q8WUM9,U2OS cells,1.20
same,Average Fold-change Tada3 O75528,U2OS cells,1.28
same,Average Fold-change Uhrf1 Q96T88,U2OS cells,0.82
"CC[C@H](CO)Nc1nc(NCc2ccccc2)c2ncn(C(C)C)c2n1 [Roscovitine, roscovitine]",Effect on period length in cyanobacteria,Synechococcus elongatus,do not affect period length
same,Circadian period length,Per2-dLuc U2OS cells,28.9 ± 0.08 h
same,remaining activity at 100 µM,CAMK1d,56.7%
same,remaining activity at 100 µM,CK2a,89.4%
same,remaining activity at 100 µM,CAMK2d,38.9%
same,remaining activity at 100 µM,ERK1/MAPK3,59.1%
same,remaining activity at 100 µM,ERK2/MAPK1,50.6%
same,remaining activity at 100 µM,TNIK,7.8%
same,remaining activity at 100 µM,CDK7,4%
same,remaining activity at 100 µM,MST4/STK26,40.1%
COc1ccc2c(c1)/C(=C/c1cnc[nH]1)C(=O)N2 [SU9516],Effect of kinase inhibitor on circadian period length,Per2-dLuc U2OS cells,substantial dose-dependent increase in the period length
NC(=O)c1ccc(-c2nc(-c3ccc4c(c3)OCCO4)c(-c3ccccn3)[nH]2)cc1 [D4476],Effect of kinase inhibitor on circadian period length,Per2-dLuc U2OS cells,substantial dose-dependent increase in the period length
"CC(C)n1cnc2c(NCc3cccc(C(F)(F)F)c3)ncnc21 [Longdaysin, longdaysin]",Effect on period length in cyanobacteria,Synechococcus elongatus,do not affect period length
same,Circadian period length,Per2-dLuc U2OS cells,35.1 ± 1.29 h
same,Average Fold-change Acot9 Q9Y305,U2OS cells,0.86
same,Average Fold-change Atp5f1e P56381,U2OS cells,0.88
same,Average Fold-change Bak1 Q16611,U2OS cells,1.18
same,Average Fold-change Cdk7 P50613,U2OS cells,0.85
same,Average Fold-change Col1a1 P02452,U2OS cells,0.83
same,Average Fold-change Csnk2a2 P19784,U2OS cells,0.81
same,Average Fold-change Csnk1d P48730,U2OS cells,0.75
same,Average Fold-change Ctsb P07858,U2OS cells,1.19
same,Average Fold-change Cyb5b O43169,U2OS cells,1.15
same,Average Fold-change Emsy Q7Z589,U2OS cells,0.86
same,Average Fold-change Gusb P08236,U2OS cells,1.17
same,Average Fold-change H1f0 P07305,U2OS cells,1.31
same,Average Fold-change Hist1h4a P62805,U2OS cells,1.36
same,Average Fold-change Hist2h3a Q71DI3,U2OS cells,1.28
same,Average Fold-change Krt9 P35527,U2OS cells,0.78
same,Average Fold-change Mapk1 P28482,U2OS cells,0.75
same,Average Fold-change Mapk14 Q16539,U2OS cells,0.78
same,Average Fold-change Nemf O60524,U2OS cells,0.80
same,Average Fold-change Npc2 P61916,U2OS cells,1.20
same,Average Fold-change Nucks1 Q9H1E3,U2OS cells,1.22
same,Average Fold-change Ppig Q13427,U2OS cells,0.89
same,Average Fold-change Rpl7a P62424,U2OS cells,0.85
same,Average Fold-change Rpl14 P50914,U2OS cells,0.80
same,Average Fold-change Rpl18 Q07020,U2OS cells,0.85
same,Average Fold-change Rpl28 P46779,U2OS cells,0.86
same,Average Fold-change Rpl37 P61927,U2OS cells,0.87
same,Average Fold-change Rpl37a P61513,U2OS cells,0.88
same,Average Fold-change Smarcd2 Q92925,U2OS cells,0.88
same,Average Fold-change Spryd4 Q8WW59,U2OS cells,0.78
same,Average Fold-change Tecr Q9NZ01,U2OS cells,0.46
same,Average Fold-change Terf2 Q15554,U2OS cells,1.15
